Earlier results in patent US6793912B2, “Treatment of cancers by inhalation of stable platinum-containing formulations” (Transave Inc., priority 2001, dated 2004).

Settings: administered by inhalation vs intravenously

## N.N.[Cl][Pt][Cl] [Cisplatin, cis-diamminedichloroplatinum(II)]
  dose required to elicit a response in animal models, more effective in the lung than intravenously: 10-100 fold
